According to article PMC11881906, “Development of xanthone derivatives as effective broad-spectrum antimicrobials: Disrupting cell wall and inhibiting DNA synthesis” (Science Advances, 2025):

Legend:
LTA = assay: Fluorescence-based binding assay; details: compound 1× MIC; LTA 0 to 2.5 μg/ml
Description: Changes in the fluorescence emission spectrum or intensity were assessed for compound XT17 with and without the presence of targeted proteins. The fluorescent properties of compound XT17 (excitation wavelength of 350 nm and emission wavelength of 440 nm) were measured using a fluorescent plate reader upon binding to the targets. LTA-targeted protein concentrations ranged from 0.2 to 6.25 μg/ml, while LPS concentrations ranged from 0.78 to 25 μg/ml. The changes in the emission from a constant concentration of fluorescent compound were monitored after adding increasing concentrations of LTA or LPS. All measurements were repeated three times with duplicates each time.

S. aureus ATCC 29213 = assay: Time-kill kinetic assay; format: cell-based, Staphylococcus aureus; details: 10× MIC, 24 hours
Description: The bacterial cultures were standardized to obtain an initial density that ranged from 10^5 to 10^6 cells/ml. The cultures were incubated in a shaking bath at 37°C. Viable counts were determined at 0-, 0.5-, 1.0-, 2.0-, 4.0-, 8.0-, and 24-hour intervals by spotting 10-μl aliquots of serially 10-fold diluted cultures onto Mueller-Hinton agar (MHA) plates. […] All measurements were repeated three times with duplicates each time.

CC(C)=CCOc1cc(OCCCNC(=N)N)cc2oc3cc(OCCCNC(=N)N)ccc3c(=O)c12 [XT17]
fluorescence emission of compound upon binding to LTA (LTA): decreased in a concentration-dependent manner | log decrease in bacterial load (S. aureus ATCC 29213): 5.16 log
